Experimental data: article PMC8764084, “Pantothenate biosynthesis is critical for chronic infection by the neurotropic parasite Toxoplasma gondii” (Nature Communications, 2022)

Biological target: T1, PBAL (pantoate β-alanine ligase; Pan synthetase) (Toxoplasma gondii, UniProt S8EZ77)
T1 construct: gene TGME49_265870; native full-length enzyme in live tachyzoites, untagged; about 88 kDa; nuclear; compared with pbal-ko
Assay: LC-MS isotope labelling of pantothenate in live parasites, RH versus pbal-ko
Type: cell-based
Details: 0.8 mM pantoate with 0.8 mM 13C3/15N-beta-alanine, medium without Pan, 40 h, intact parasites in HFF

T1 sequence (S8EZ77 entry or part of it): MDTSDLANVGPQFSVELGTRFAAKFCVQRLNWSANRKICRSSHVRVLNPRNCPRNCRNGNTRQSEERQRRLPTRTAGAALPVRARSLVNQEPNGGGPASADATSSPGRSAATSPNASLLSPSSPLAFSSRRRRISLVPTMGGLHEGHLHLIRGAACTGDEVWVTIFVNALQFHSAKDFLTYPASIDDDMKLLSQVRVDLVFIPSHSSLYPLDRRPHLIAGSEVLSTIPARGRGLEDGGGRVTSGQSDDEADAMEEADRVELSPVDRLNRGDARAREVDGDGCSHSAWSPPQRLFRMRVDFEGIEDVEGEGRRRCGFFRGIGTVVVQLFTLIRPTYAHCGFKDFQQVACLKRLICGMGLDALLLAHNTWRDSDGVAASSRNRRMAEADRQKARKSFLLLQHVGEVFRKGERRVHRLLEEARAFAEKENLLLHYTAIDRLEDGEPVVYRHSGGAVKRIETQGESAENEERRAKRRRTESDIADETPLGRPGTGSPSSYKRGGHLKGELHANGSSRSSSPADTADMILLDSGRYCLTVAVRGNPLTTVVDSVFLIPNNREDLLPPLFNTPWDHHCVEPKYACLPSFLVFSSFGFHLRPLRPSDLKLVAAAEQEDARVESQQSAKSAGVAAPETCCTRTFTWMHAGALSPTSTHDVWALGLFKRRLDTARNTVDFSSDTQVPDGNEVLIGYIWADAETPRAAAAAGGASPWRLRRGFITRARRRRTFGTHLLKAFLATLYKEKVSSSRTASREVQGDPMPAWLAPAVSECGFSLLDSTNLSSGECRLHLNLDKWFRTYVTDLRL

Compound	LC-MS isotope labelling of pantothenate in live parasites, RH versus pbal-ko (labelled compound)	LC-MS isotope labelling of pantothenate in live parasites, RH versus pbal-ko
NCCC(=O)O [13C3/15N-β-Ala]	led to the formation of labeled Pan in all strains except pbal-ko	
CC(C)(CO)[C@@H](O)C(=O)O [pantoate]		led to the formation of labeled Pan in all strains except pbal-ko
